Measurements taken from ChEMBL document CHEMBL1150351, “Design, synthesis, and biological evaluation of new-generation taxoids” (J Med Chem, 2008).

Assays:
[1] = Cytotoxicity against Pgp deficient human LCC6 cells after 72 hrs by sulforhodamine B test; assay type: functional, cell-based; conditions: C6, 72 h
[2] = Cytotoxicity against multidrug resistant Pgp expressing human NCI/ADR cells after 72 hrs by sulforhodamine B test; assay type: functional, cell-based; conditions: NCI/ADR-RES
[3] = system: MCF7; test: Cytotoxicity against Pgp deficient human MCF7 cells after 72 hrs by sulforhodamine B test; assay type: functional, cell-based; conditions: MCF7, 72 h
[4] = system: C6; test: Resistance index, Ratio of IC50 for multidrug resistant Pgp expressing human LCC6 cells to IC50 for Pgp deficient human LCC6 cells; assay type: functional; design: reference not given here
[5] = Cytotoxicity against multidrug resistant Pgp expressing human LCC6 cells after 72 hrs by sulforhodamine B test; assay type: functional, cell-based; conditions: LCC-6, 72 h

| Structure (SMILES) | IC50 [1] [nM] | IC50 [2] [nM] | IC50 [3] [nM] | Ratio IC50 [4] | IC50 [5] [nM] |
| --- | --- | --- | --- | --- | --- |
| CCC(=O)O[C@H]1C(=O)[C@@]2(C)[C@H]([C@H](OC(=O)c3cccc(Cl)c3)[C@]3(O)C[C@H](OC(=O)[C@H](O)[C@H](C=C(C)C)NC(=O)OC(C)(C)C)C(C)=C1C3(C)C)[C@]1(OC(C)=O)CO[C@@H]1C[C@@H]2O | 0.8 | – | – | – | – |
| CC(=O)O[C@H]1C(=O)[C@@]2(C)[C@H]([C@H](OC(=O)c3cccc(C)c3)[C@]3(O)C[C@H](OC(=O)[C@H](O)[C@H](C=C(C)C)NC(=O)OC(C)(C)C)C(C)=C1C3(C)C)[C@]1(OC(C)=O)CO[C@@H]1C[C@@H]2O | 1.5 | 5 | 0.8 | – | – |
| CC(=O)O[C@@]12CO[C@@H]1C[C@H](O)[C@@]1(C)C(=O)[C@H](OC(=O)c3cccc4ccccc34)C3=C(C)[C@@H](OC(=O)[C@H](O)[C@H](C=C(C)C)NC(=O)OC(C)(C)C)C[C@@](O)([C@@H](OC(=O)c4ccccc4)[C@H]21)C3(C)C | 5.3 | – | – | 2.9 | 15.2 |
| COc1ccc(C(=O)O[C@H]2C(=O)[C@@]3(C)[C@H]([C@H](OC(=O)c4ccccc4)[C@]4(O)C[C@H](OC(=O)[C@H](O)[C@H](C=C(C)C)NC(=O)OC(C)(C)C)C(C)=C2C4(C)C)[C@]2(OC(C)=O)CO[C@@H]2C[C@@H]3O)cc1 | 3.8 | – | – | 1.2 | 4.7 |
| CCC(=O)O[C@H]1C(=O)[C@@]2(C)[C@H]([C@H](OC(=O)c3cccc(F)c3)[C@]3(O)C[C@H](OC(=O)[C@H](O)[C@H](CC(C)C)NC(=O)OC(C)(C)C)C(C)=C1C3(C)C)[C@]1(OC(C)=O)CO[C@@H]1C[C@@H]2O | 0.4 | – | – | – | – |
| CC(=O)O[C@@]12CO[C@@H]1C[C@H](O)[C@@]1(C)C(=O)[C@H](O)C3=C(C)[C@@H](OC(=O)[C@H](O)[C@@H](NC(=O)OC(C)(C)C)c4ccccc4)C[C@@](O)([C@@H](OC(=O)c4ccccc4)[C@H]21)C3(C)C.O.O.O [DOCETAXEL] | 1 | – | – | – | 120 |
| CCC(=O)O[C@H]1C(=O)[C@@]2(C)[C@H]([C@H](OC(=O)c3cccc(OC)c3)[C@]3(O)C[C@H](OC(=O)[C@H](O)[C@@H](NC(=O)OC(C)(C)C)[C@H]4CC4(C)C)C(C)=C1C3(C)C)[C@]1(OC(C)=O)CO[C@@H]1C[C@@H]2O | 0.48 | 1.5 | 0.6 | – | – |
| COc1cccc(CC(=O)O[C@H]2C(=O)[C@@]3(C)[C@H]([C@H](OC(=O)c4ccccc4)[C@]4(O)C[C@H](OC(=O)[C@H](O)[C@H](C=C(C)C)NC(=O)OC(C)(C)C)C(C)=C2C4(C)C)[C@]2(OC(C)=O)CO[C@@H]2C[C@@H]3O)c1 | 2.1 | – | – | 9.7 | 20.3 |
| CCC(=O)O[C@H]1C(=O)[C@@]2(C)[C@H]([C@H](OC(=O)c3cccc(F)c3)[C@]3(O)C[C@H](OC(=O)[C@H](O)[C@H](C=C(C)C)NC(=O)OC(C)(C)C)C(C)=C1C3(C)C)[C@]1(OC(C)=O)CO[C@@H]1C[C@@H]2O | 0.5 | – | – | – | – |
| C/C=C/[C@H](NC(=O)OC(C)(C)C)[C@@H](O)C(=O)O[C@H]1C[C@@]2(O)[C@@H](OC(=O)c3cccc(OC)c3)[C@@H]3[C@]4(OC(C)=O)CO[C@@H]4C[C@H](O)[C@@]3(C)C(=O)[C@H](OC(=O)CC)C(=C1C)C2(C)C | 1.2 | – | – | – | – |
| CC(=O)O[C@@]12CO[C@@H]1C[C@H](O)[C@@]1(C)C(=O)[C@H](OC(=O)CCc3ccccc3)C3=C(C)[C@@H](OC(=O)[C@H](O)[C@H](C=C(C)C)NC(=O)OC(C)(C)C)C[C@@](O)([C@@H](OC(=O)c4ccccc4)[C@H]21)C3(C)C | 5.1 | – | – | 6.1 | 31.2 |
| COc1cccc(C(=O)O[C@H]2[C@@H]3[C@]4(OC(C)=O)CO[C@@H]4C[C@H](O)[C@@]3(C)C(=O)[C@H](OC(=O)C3CC3)C3=C(C)[C@@H](OC(=O)[C@H](O)[C@H](C=C(C)C)NC(=O)OC(C)(C)C)C[C@]2(O)C3(C)C)c1 | 1 | – | – | 2.9 | 2.9 |
| COc1ccccc1C(=O)O[C@H]1C(=O)[C@@]2(C)[C@H]([C@H](OC(=O)c3ccccc3)[C@]3(O)C[C@H](OC(=O)[C@H](O)[C@H](C=C(C)C)NC(=O)OC(C)(C)C)C(C)=C1C3(C)C)[C@]1(OC(C)=O)CO[C@@H]1C[C@@H]2O | 2.1 | – | – | 2.7 | 5.8 |
| C=Cc1cccc(C(=O)O[C@H]2[C@@H]3[C@]4(OC(C)=O)CO[C@@H]4C[C@H](O)[C@@]3(C)C(=O)[C@H](OC(=O)CC)C3=C(C)[C@@H](OC(=O)[C@H](O)[C@H](C=C(C)C)NC(=O)OC(C)(C)C)C[C@]2(O)C3(C)C)c1 | 2.9 | – | – | – | – |
| CC(=O)O[C@@]12CO[C@@H]1C[C@H](O)[C@@]1(C)C(=O)[C@H](OC(=O)c3ccc4ccccc4c3)C3=C(C)[C@@H](OC(=O)[C@H](O)[C@H](C=C(C)C)NC(=O)OC(C)(C)C)C[C@@](O)([C@@H](OC(=O)c4ccccc4)[C@H]21)C3(C)C | 6.3 | – | – | 2.4 | 15.2 |
| CC(=O)O[C@@]12CO[C@@H]1C[C@H](O)[C@@]1(C)C(=O)[C@H](OC(=O)OCc3ccccc3)C3=C(C)[C@@H](OC(=O)[C@H](O)[C@H](C=C(C)C)NC(=O)OC(C)(C)C)C[C@@](O)([C@@H](OC(=O)c4ccccc4)[C@H]21)C3(C)C | 1.8 | – | – | 9.3 | 16.7 |
| COc1cccc(CCC(=O)O[C@H]2C(=O)[C@@]3(C)[C@H]([C@H](OC(=O)c4ccccc4)[C@]4(O)C[C@H](OC(=O)[C@H](O)[C@H](C=C(C)C)NC(=O)OC(C)(C)C)C(C)=C2C4(C)C)[C@]2(OC(C)=O)CO[C@@H]2C[C@@H]3O)c1 | 3.7 | – | – | 1.8 | 6.7 |
| COc1cccc(C(=O)O[C@H]2C(=O)[C@@]3(C)[C@H]([C@H](OC(=O)c4ccccc4)[C@]4(O)C[C@H](OC(=O)[C@H](O)[C@H](C=C(C)C)NC(=O)OC(C)(C)C)C(C)=C2C4(C)C)[C@]2(OC(C)=O)CO[C@@H]2C[C@@H]3O)c1 | 2.8 | – | – | 1.8 | 5.1 |
| CC(=O)O[C@@]12CO[C@@H]1C[C@H](O)[C@@]1(C)C(=O)[C@H](OC(=O)c3ccccc3)C3=C(C)[C@@H](OC(=O)[C@H](O)[C@H](C=C(C)C)NC(=O)OC(C)(C)C)C[C@@](O)([C@@H](OC(=O)c4ccccc4)[C@H]21)C3(C)C | 1.8 | – | – | 2.7 | 4.8 |
| COc1ccccc1CC(=O)O[C@H]1C(=O)[C@@]2(C)[C@H]([C@H](OC(=O)c3ccccc3)[C@]3(O)C[C@H](OC(=O)[C@H](O)[C@H](C=C(C)C)NC(=O)OC(C)(C)C)C(C)=C1C3(C)C)[C@]1(OC(C)=O)CO[C@@H]1C[C@@H]2O | 2.3 | – | – | 6 | 13.8 |
| COc1ccccc1CCC(=O)O[C@H]1C(=O)[C@@]2(C)[C@H]([C@H](OC(=O)c3ccccc3)[C@]3(O)C[C@H](OC(=O)[C@H](O)[C@H](C=C(C)C)NC(=O)OC(C)(C)C)C(C)=C1C3(C)C)[C@]1(OC(C)=O)CO[C@@H]1C[C@@H]2O | 1.5 | – | – | 3.3 | 5 |
| COc1ccc(CCC(=O)O[C@H]2C(=O)[C@@]3(C)[C@H]([C@H](OC(=O)c4ccccc4)[C@]4(O)C[C@H](OC(=O)[C@H](O)[C@H](C=C(C)C)NC(=O)OC(C)(C)C)C(C)=C2C4(C)C)[C@]2(OC(C)=O)CO[C@@H]2C[C@@H]3O)cc1 | 1.7 | – | – | 2.9 | 4.9 |
